The source of these data is US20250186408A1, “TREATMENT OF PHARMACORESISTANT EPILEPSY” (Katholieke Universiteit Leuven, priority 2021, published 2025).

The first experiment relates to EKP-induced epileptiform discharges in zebrafish larvae. The experiment in a line: Zebrafish EKP seizure model, electrophysiology (non-invasive LFP recordings, PSD analysis). It counts as in vivo, zebrafish (Danio rerio). The note with it: 2 μM, 22 h, 7 dpf larvae.
Method: Non-invasive LFP recordings were measured from the midbrain (optic tectum) of 7 dpf zebrafish larvae pre-incubated with VHC only, EKP only, or compound and EKP. […] These steps occurred at 28° C., while further manipulation and electrophysiological recordings occurred at room temperature (±21° C.) and were performed as described before (16, 27). Each recording lasted 600 seconds.
A power spectral density (PSD) analysis of the recordings was performed using MatLab R2019 software (MATrix LABoratory, USA) as described in (26). The PSD estimate of each LFP recording was summed over each 10 Hz frequency band, ranging from 0 to 160 Hz. Next, the PSD estimates were normalized against the VHC control. Data are expressed as mean±SEM PSD per larva and per condition over the 20-90 Hz region. Outliers were identified via the ROUT test (Q=1%).
PSD analysis assumes that the epileptiform activity manifests as a high-power oscillation at certain frequencies (26). Thus, if epileptic activity occurs often during the recording an elevated PSD estimate should be found at the corresponding frequency band(s) (26).
`Cn1nc(C#Cc2cccc(Cl)c2)c2cccnc21` [Compound 10.2, 3-((3-chlorophenyl)ethynyl)-1-methyl-1H-pyrazolo[3,4-b]pyridine]: the “effect on EKP-induced elevated PSD (in words)” value is on record as “did not”.

Staying with this experiment, now noted: 2 μM, 22 h incubation, 7 dpf larvae; mean, normalized PSD 20-90 Hz.
`Nc1ncccc1C(=O)C#Cc1ccc(C(F)(F)F)cc1` [Compound 1.11, 1-(2-aminopyridin-3-yl)-3-(4-(trifluoromethyl)phenyl)prop-2-yn-1-one]: the “efficacy against EKP-induced epileptiform discharges 2 μM” value turned out to be 47%.

On to `CC(C)C#CC(=O)c1cccnc1N` [Compound 1.6, 1-(2-aminopyridin-3-yl)-4-methylpent-2-yn-1-one], for which the “efficacy against EKP-induced epileptiform discharges 2 μM” value came out at 1%.

As to `CC(C)(C)c1ccc(C#CC(=O)c2cccc(F)c2)cc1` [Compound 1.39, 3-(4-(tert-butyl)phenyl)-1-(3-fluorophenyl)prop-2-yn-1-one], the “efficacy against EKP-induced epileptiform discharges 2 μM” value is given as −61%.

Consider `O=C(C#Cc1cccc(Cl)c1)c1cccnc1` [Compound 1.25, 3-(3-chlorophenyl)-1-(pyridin-3-yl)prop-2-yn-1-one], for which the “efficacy against EKP-induced epileptiform discharges 2 μM” value is −43%.

With `COc1ccccc1C(=O)C#Cc1ccc(C(C)(C)C)cc1` [Compound 1.18, 3-(4-(tert-butyl)phenyl)-1-(2-methoxyphenyl)prop-2-yn-1-one], the “efficacy against EKP-induced epileptiform discharges 2 μM” value is listed as 71%.

For the compound `Nc1ncccc1C(=O)C#Cc1ccc(Cl)cc1` [Compound 1.7, 1-(2-aminopyridin-3-yl)-3-(4-chlorophenyl)prop-2-yn-1-one], the “efficacy against EKP-induced epileptiform discharges 2 μM” value came out at 70%.

Consider `Cn1nc(C#Cc2cccc(Cl)c2)c2cccnc21` [Compound 10.2, 3-((3-chlorophenyl)ethynyl)-1-methyl-1H-pyrazolo[3,4-b]pyridine], for which the “efficacy against EKP-induced epileptiform discharges 2 μM” value worked out at 19%.

As for `Nc1ncccc1C(=O)C#CC1CCCCC1` [Compound 1.4, 1-(2-aminopyridin-3-yl)-3-cyclohexylprop-2-yn-1-one], the “efficacy against EKP-induced epileptiform discharges 2 μM” value is given as 69%.

Consider `O=C(C#Cc1cccc(Cl)c1)c1ncc[nH]1` [Compound 1.26, 3-(3-chlorophenyl)-1-(1H-imidazol-2-yl)prop-2-yn-1-one], for which the “efficacy against EKP-induced epileptiform discharges 2 μM” value stood at 51%.

Consider `CC(C)(C)c1ccc(C#CC(=O)c2ccccc2O)cc1` [Compound 1.19, 3-(4-(tert-butyl)phenyl)-1-(2-hydroxyphenyl)prop-2-yn-1-one], for which the “efficacy against EKP-induced epileptiform discharges 2 μM” value is −23%.

Take `CC(C)(C)c1ccc(C#CC(=O)c2ccccc2N)cc1` [Compound 1.14, 1-(2-aminophenyl)-3-(4-(tert-butyl)phenyl)prop-2-yn-1-one]: the “efficacy against EKP-induced epileptiform discharges 2 μM” value is recorded as 60%.

Take `Nc1ncccc1C(O)C#Cc1cccc(Cl)c1` (racemic) [Compound 3.4, rac-1-(2-aminopyridin-3-yl)-3-(3-chlorophenyl)prop-2-yn-1-ol]: the “efficacy against EKP-induced epileptiform discharges 2 μM” value is reported as 7%.

For the compound `CC(C)(C)c1ccc(C#CC(=O)c2ccccc2)cc1` [Compound 1.16, 3-(4-(tert-butyl)phenyl)-1-phenylprop-2-yn-1-one], the “efficacy against EKP-induced epileptiform discharges 2 μM” value came out at 38%.

Turning to `CC(C)(C)c1ccc(C2=CC(c3ccccc3)=CS(C)(=O)=C2)cc1` (stereo not shown) [Compound 9.1, 3-(4-(tert-butyl)phenyl)-1-methyl-5-phenyl-1λ^6-thiopyran 1-oxide], the “efficacy against EKP-induced epileptiform discharges 2 μM” value amounted to 51%.

As for `COc1ccccc1C(O)C#Cc1ccc(C(C)(C)C)cc1` (racemic) [Compound 3.1, rac-3-(4-(tert-butyl)phenyl)-1-(2-methoxyphenyl)prop-2-yn-1-ol], the “efficacy against EKP-induced epileptiform discharges 2 μM” value was 79%.

As to `CC(C)(C)c1ccc(C#CC(O)c2ccccc2O)cc1` (racemic) [Compound 3.2, rac-2-(3-(4-(tert-butyl)phenyl)-1-hydroxyprop-2-yn-1-yl)phenol], the “efficacy against EKP-induced epileptiform discharges 2 μM” value came to 26%.

For `CCSC(=CC(=O)c1ccccc1)c1ccc(C(C)(C)C)cc1` (mixture of isomers) [Compound 5.1, (E/Z)-3-(4-(tert-butyl)phenyl)-3-(ethylthio)-1-phenylprop-2-en-1-one], the “efficacy against EKP-induced epileptiform discharges 2 μM” value was found to be 36%.

Take `CCCCCC#CC(=O)c1cccnc1N` [Compound 1.5, 1-(2-aminopyridin-3-yl)oct-2-yn-1-one]: the “efficacy against EKP-induced epileptiform discharges 2 μM” value is 91%.

With `COC(=O)c1ccc(C#CC(=O)c2cccnc2N)cc1` [Compound 1.8, methyl 4-(3-(2-aminopyridin-3-yl)-3-oxoprop-1-yn-1-yl)benzoate], the “efficacy against EKP-induced epileptiform discharges 2 μM” value is given as 18%.

Consider `CC(C)(C)c1ccc(C#CC=O)cc1` [Compound 2.1, 3-(4-(tert-butyl)phenyl)propiolaldehyde], for which the “efficacy against EKP-induced epileptiform discharges 2 μM” value was found to be 30%.

On to `COc1cccc(C#CC(=O)c2ccccc2)c1` [Compound 1.32, 3-(3-methoxyphenyl)-1-phenylprop-2-yn-1-one], for which the “efficacy against EKP-induced epileptiform discharges 2 μM” value amounted to 29%.

Turning to `O=C(C#Cc1cccc(Cl)c1)c1ccccc1` [Compound 1.34, 3-(3-chlorophenyl)-1-phenylprop-2-yn-1-one], the “efficacy against EKP-induced epileptiform discharges 2 μM” value is given as 21%.

With `Cc1cccc(C#CC(=O)c2ccccc2)c1` [Compound 1.33, 1-phenyl-3-(m-tolyl)prop-2-yn-1-one], the “efficacy against EKP-induced epileptiform discharges 2 μM” value stood at 50%.

Turning to `Nc1ncccc1C(=O)C#Cc1cccc(C(F)(F)F)c1` [Compound 1.17, 1-(2-aminopyridin-3-yl)-3-(3-(trifluoromethyl)phenyl)prop-2-yn-1-one], the “efficacy against EKP-induced epileptiform discharges 2 μM” value came to 61%.

`Cc1ccc(C#CC(=O)c2ccccc2)cc1` [Compound 1.30, 1-phenyl-3-(p-tolyl)prop-2-yn-1-one]: the “efficacy against EKP-induced epileptiform discharges 2 μM” value was determined as 28%.

For `Nc1ncccc1C(=O)C#Cc1cccc(Cl)c1` [Compound 1.10, 1-(2-aminopyridin-3-yl)-3-(3-chlorophenyl)prop-2-yn-1-one], the “efficacy against EKP-induced epileptiform discharges 2 μM” value was −42%.

As to `CC(C)[Si](C#CC(=O)c1cccnc1N)(C(C)C)C(C)C` [Compound 1.3, 1-(2-aminopyridin-3-yl)-3-(triisopropylsilyl)prop-2-yn-1-one], the “efficacy against EKP-induced epileptiform discharges 2 μM” value was 67%.

As for `Nc1ccccc1C(=O)C#Cc1cccc(Cl)c1` [Compound 1.40, 1-(2-aminophenyl)-3-(3-chlorophenyl)prop-2-yn-1-one], the “efficacy against EKP-induced epileptiform discharges 2 μM” value was found to be 82%.

As to `COc1ccccc1C#CC(=O)c1ccccc1` [Compound 1.36, 3-(2-methoxyphenyl)-1-phenylprop-2-yn-1-one], the “efficacy against EKP-induced epileptiform discharges 2 μM” value is given as 52%.

For `COc1ccc(C#CC(=O)c2ccccc2)cc1` [Compound 1.29, 3-(4-methoxyphenyl)-1-phenylprop-2-yn-1-one], the “efficacy against EKP-induced epileptiform discharges 2 μM” value is recorded as 26%.

`CN(C)c1ncccc1C(=O)C#Cc1cccc(Cl)c1` [Compound 1.27, 3-(3-chlorophenyl)-1-(2-(dimethylamino)pyridin-3-yl)prop-2-yn-1-one]: the “efficacy against EKP-induced epileptiform discharges 2 μM” value is −52%.

For the compound `Cc1ccc(C#CC(=O)c2cccnc2N)cc1` [Compound 1.12, 1-(2-aminopyridin-3-yl)-3-(p-tolyl)prop-2-yn-1-one], the “efficacy against EKP-induced epileptiform discharges 2 μM” value worked out at 86%.

As for `CC(C)(C)c1ccc(C#CC(=O)c2cccnc2)cc1` [Compound 1.15, 3-(4-(tert-butyl)phenyl)-1-(pyridin-3-yl)prop-2-yn-1-one], the “efficacy against EKP-induced epileptiform discharges 2 μM” value is reported as −49%.

Consider `O=C(C#Cc1ccccc1Cl)c1ccccc1` [Compound 1.38, 3-(2-chlorophenyl)-1-phenylprop-2-yn-1-one], for which the “efficacy against EKP-induced epileptiform discharges 2 μM” value is −63%.

Consider `Cc1ccccc1C#CC(=O)c1ccccc1` [Compound 1.37, 1-phenyl-3-(o-tolyl)prop-2-yn-1-one], for which the “efficacy against EKP-induced epileptiform discharges 2 μM” value is recorded as 28%.

Take `Nc1ncccc1C(=O)C#Cc1ccc(F)cc1` [Compound 1.2, 1-(2-aminopyridin-3-yl)-3-(4-fluorophenyl)prop-2-yn-1-one]: the “efficacy against EKP-induced epileptiform discharges 2 μM” value worked out at 80%.

`O=C(C#Cc1ccccc1)c1ccccc1` [Compound 1.28, 1,3-diphenylprop-2-yn-1-one]: the “efficacy against EKP-induced epileptiform discharges 2 μM” value was 25%.

Consider `Nc1ncccc1C(=O)/C=C/c1cccc(Cl)c1` [Compound 5.2, (E)-1-(2-aminopyridin-3-yl)-3-(3-chlorophenyl)prop-2-en-1-one], for which the “efficacy against EKP-induced epileptiform discharges 2 μM” value is given as 55%.

`Nc1ncccc1C(=O)C#Cc1ccccc1` [Compound 1.1, 1-(2-aminopyridin-3-yl)-3-phenylprop-2-yn-1-one]: the “efficacy against EKP-induced epileptiform discharges 2 μM” value is recorded as 65%.

As to `COc1ccc(C#CC(=O)c2cccnc2N)cc1` [Compound 1.9, 1-(2-aminopyridin-3-yl)-3-(4-methoxyphenyl)prop-2-yn-1-one], the “efficacy against EKP-induced epileptiform discharges 2 μM” value was 35%.

Regarding `Clc1cccc(C#Cc2n[nH]c3ccccc23)c1` [Compound 11.1, 3-((3-chlorophenyl)ethynyl)-1H-indazole], the “efficacy against EKP-induced epileptiform discharges 2 μM” value is 60%.

On to `CC(C)(C)c1ccc(C#CC(=O)c2ncccc2N)cc1` [Compound 1.24, 1-(3-aminopyridin-2-yl)-3-(4-(tert-butyl)phenyl)prop-2-yn-1-one], for which the “efficacy against EKP-induced epileptiform discharges 2 μM” value stood at 45%.

Still in this experiment, the particulars now being: 10 μM, 22 h, 7 dpf larvae.
In the case of `Cn1nc(C#Cc2cccc(Cl)c2)c2cccnc21` [Compound 10.2, 3-((3-chlorophenyl)ethynyl)-1-methyl-1H-pyrazolo[3,4-b]pyridine], the “effect on EKP-induced elevated PSD (in words)” value is listed as “significant decrease”.

Staying with this experiment, now noted: 10 μM, 22 h incubation, 7 dpf larvae; mean, normalized PSD 20-90 Hz.
For `Cn1nc(C#Cc2cccc(Cl)c2)c2cccnc21` [Compound 10.2, 3-((3-chlorophenyl)ethynyl)-1-methyl-1H-pyrazolo[3,4-b]pyridine], the “efficacy against EKP-induced epileptiform discharges 10 μM” value was 76%.

As for `Nc1ncccc1C(O)C#Cc1cccc(Cl)c1` (racemic) [Compound 3.4, rac-1-(2-aminopyridin-3-yl)-3-(3-chlorophenyl)prop-2-yn-1-ol], the “efficacy against EKP-induced epileptiform discharges 10 μM” value is listed as 7%.

With `CC(C)(C)c1ccc(C#CC(O)c2ccccc2O)cc1` (racemic) [Compound 3.2, rac-2-(3-(4-(tert-butyl)phenyl)-1-hydroxyprop-2-yn-1-yl)phenol], the “efficacy against EKP-induced epileptiform discharges 10 μM” value was 57%.

On to `CC(C)[Si](C#CC(=O)c1cccnc1N)(C(C)C)C(C)C` [Compound 1.3, 1-(2-aminopyridin-3-yl)-3-(triisopropylsilyl)prop-2-yn-1-one], for which the “efficacy against EKP-induced epileptiform discharges 10 μM” value is given as −23%.

Consider `CC(C)(C)c1ccc(C#CC(=O)c2ncccc2N)cc1` [Compound 1.24, 1-(3-aminopyridin-2-yl)-3-(4-(tert-butyl)phenyl)prop-2-yn-1-one], for which the “efficacy against EKP-induced epileptiform discharges 10 μM” value turned out to be 11%.
